Measured values as given in patent publication US5512305A, “Invitroinhibition of the HIV virus with ionic tungstoniobate compounds” (priority 1990, dated 1996).

Tests used:
cells = conditions: background statement; cited from earlier work
[1] = Storage stability / shelf-life; type: physicochemical
HIV-1 (strain LAV-1) = assay: Inhibition of virus replication in human PBMC (supernatant reverse transcriptase activity); type: cell-based; conditions: 50% inhibition of RT activity vs untreated controls, six days after infection
Method: (§1) Cells. Human peripheral blood mononuclear cells (PBMC) from healthy HIV-1 seronegative and hepatitis B virus seronegative donors were isolated by Ficoll-Hypaque discontinuous gradient centrifugation at 1,000×g for 30 minutes, washed twice in phosphate-buffered saline (pH 7.2; PBS), and pelleted at 300×g for 10 minutes. Before infection, the cells were stimulated by phytohemagglutinin […] at a concentration of 6 μg/ml for three days in RPMI 1640 medium supplemented with 15% heat-inactivated fetal calf serum, 1.5 mM L-glutamine, penicillin (100 U/ml), streptomycin (100 μg/ml), and 4 mM sodium bicarbonate buffer.
Viruses. HIV-1 (strain LAV-1) was obtained from Dr. P. Feorino (Centers for Disease Control, Atlanta, Ga.). […]
PBMC. […] The mean reverse transcriptase (RT) activity of the inocula was 50,000 decompositions per min/ml corresponding to about 100 TCID50, as determined by Groopman et al. (Groopman et al, AIDS Res. Human Retro. 3, 71-85, 1987. The drugs at twice their final concentration in 5 ml of RPMI 1640 medium, supplemented as described above, were added to the cultures. Uninfected and untreated PBMC at equivalent cell densities were grown in parallel as controls. The cultures were maintained in a humidified 5% CO2 -95% air incubator at 37° C. for six days after infection, at which point all cultures were sampled for supernatant reverse transcriptase (RT) activity. […]
The RT assay was performed in 96-well microtiter plates, as described by Spira et al. (Spira et al, J. Clin. Microbiol. 22, 97-99, 1987). […] Four ml of scintillation fluid (Econofluor, NEN Research Products, Boston, Mass.) were added and the amount of radioactivity in each sample was determined using a Packard Tri-Carb liquid scintillation analyzer (model 2,000CA). […]

HSV-1 = assay: Plaque reduction assay for herpes simplex in Vero cells; type: cell-based
From the text: Cell culture assays for herpes simplex.
Viruses. (HSV-1) Mycoplasma-free Vero cells, obtained from Flow Laboratory (McLean, Va.), were used for plaque assays.

human PBMC = assay: Cytotoxicity assay in uninfected PHA stimulated human PBMC (trypan blue dye-exclusion); type: cell-based; conditions: 6 days, cell viability
Method: as §1
Cytotoxicity assay. The drugs were evaluated for their potential toxic affects on uninfected PHA stimulated human PBMC. Flasks were seeded so that the final cell concentration was 2×10^5 cells/mi. The cells were cultured with and without drug for 6 days, at which time aliquots were counted for cell viability, as assessed by the trypan blue dye-exclusion method using a hemacytometer. The median inhibitory concentration (IC50) was calculated using the median effect method (Chou et al, Elsevier-Biosoft, Elsevier Science Publishers, Cambridge, U.K., 1985; Chou et al, Adv. Enz. Regul. 22, 27-55, 1984). The results are reported as IC50 PBMC below.

Vero cells = assay: Cytotoxicity assay in Vero cells; type: cell-based
herpes virus = conditions: JP 64-38,022; cited from earlier work
HIV = conditions: Chemical and Engineering News, December 1986; cited from earlier work
[2] = compound abandoned; cited from earlier work

Row | Compound | EC50 (HIV-1 (strain LAV-1)) | EC50 (HSV-1) | IC50 (human PBMC) | IC50 (Vero cells) | further results
1 | Cc1cn([C@H]2C[C@H](N=[N+]=[N-])[C@@H](CO)O2)c(=O)[nH]c1=O [AZT] | – | – | – | – | toxicity to cells (cells): high toxicity to cells
2 | (Me4 N)9 P2 Nb3 W15 O62 !.15H2 O.CH3 CN | – | – | – | – | stability on storage [1]: stable on storage
3 | (Me4 N/Na/K)5 Nb3 W3 O19 !.nH2 O [Me4 N/Na/K!5 Nb3 W3 O19 !] | 8.56 µM | 5.66 µM | > 100 µM | > 100 µM | –
4 | (Na/K)6 Nb4 W2 O19 !.nH2 O [Na/K!6 Nb4 W2 O19 !] | 0.073 µM | > 100 µM | > 100 µM | > 100 µM | –
5 | K5 BW12 O40 | – | – | – | – | activity against herpes virus (herpes virus): activity against herpes virus
6 | K7 PW10 Ti2 O40 | – | – | – | – | activity against herpes virus (herpes virus): activity against herpes virus
7 | Me3 NH!8 Si2 W18 Nb6 O77 ! | 0.081 µM | > 1 µM | > 100 µM | > 100 µM | –
8 | silicotungstate acid [H4 SiW12 O40] | – | – | – | – | activity against HIV (HIV): has activity against HIV; toxicity in higher animals [2]: toxicity in higher animals
